Results reported in patent US20060009478A1, “Methods for the treatment of back pain” (priority 2003, published 2006).

How the values were obtained:
[1] = test system: patients with moderate to severe chronic low back pain; experiment: Opioid-associated adverse events (constipation, nausea, vomiting, dizziness, somnolence, pruritus), low back pain study
[2] = Plasma concentrations of oxycodone, oxymorphone, noroxycodone, naltrexone and 6β-naltrexol by solid phase extraction LC-MS/MS
Source text: Patients with moderate-to-severe pain due to osteoarthritis of the hip or knee were randomly assigned to one of four treatment groups as shown in Table 3 of Example 1. Plasma samples were obtained for each patient at the beginning of Weeks 1, 2, 3 and at the end of dosing during Week 3.
For the analysis of linearity and dose proportionality, linear equation coefficients were obtained by averaging patient-specific slopes and intercepts obtained by within-patient least squares regression. This was done to account for the correlation among the repeated measurements due to the patient's contributing data at each dose level. The resulting slopes among treatment groups were compared by one-way analysis of variance (ANOVA), and a one-sample t-test assessed the common slope's difference from zero. A measure of deviation from linearity was constructed as the difference between the concentration at the middle dose versus the average of the concentrations at the lower and higher doses. Due to equal spacing of doses, this measure has expectation zero under the hypothesis of linearity. As above, ANOVA and t-tests were used to assess linearity.
To achieve symmetry, modified log transformations were used.

[3] = event table, all occurrences, through the treatment period, ITT
[4] = event table, % of total number of events
[5] = through the treatment period, ITT population

COc1ccc2c3c1O[C@H]1C(=O)CC[C@@]4(O)[C@@H](C2)N(C)CC[C@]314 [OXY QID, oxycodone]
Number of events, all opioid-associated adverse events [1, 3]: 2549 | Number of events, all opioid-associated adverse events (by severity table) [1, 3]: 2549 | Number of events, constipation [1, 3]: 576 | Number of events, constipation, mild [1, 3]: 430 | Number of events, constipation, moderate [1, 3]: 119 | Number of events, constipation, severe [1, 3]: 27 | Number of events, dizziness [1, 3]: 390 | Number of events, dizziness, mild [1, 3]: 314 | Number of events, dizziness, moderate [1, 3]: 63 | Number of events, dizziness, severe [1, 3]: 13 | Number of events, gastrointestinal disorders [1, 3]: 1143 | Number of events, gastrointestinal disorders (by severity table) [1, 3]: 1143 | Number of events, nausea [1, 3]: 459 | Number of events, nausea, mild [1, 3]: 336 | Number of events, nausea, moderate [1, 3]: 93 | Number of events, nausea, severe [1, 3]: 30 | Number of events, nervous system disorders [1, 3]: 952 | Number of events, nervous system disorders (by severity table) [1, 3]: 952 | Number of events, pruritus [1, 3]: 454 | Number of events, pruritus, moderate [1, 3]: 93 | Number of events, pruritus, severe [1, 3]: 13 | Number of events, skin and subcutaneous tissue disorders [1, 3]: 454 | Number of events, skin and subcutaneous tissue disorders (by severity table) [1, 3]: 454 | Number of events, somnolence [1, 3]: 562 | Number of events, somnolence, mild [1, 3]: 390 | Number of events, somnolence, moderate [1, 3]: 133 | Number of events, somnolence, severe [1, 3]: 39 | Number of events, vomiting [1, 3]: 108 | Number of events, vomiting, mild [1, 3]: 61 | Number of events, vomiting, moderate [1, 3]: 26 | Number of events, vomiting, severe [1, 3]: 21 | % of all events, constipation, mild [1, 4]: 16.9% | % of all events, constipation, moderate [1, 4]: 4.7% | % of all events, constipation, severe [1, 4]: 1.1% | % of all events, dizziness [1, 4]: 15.3% | % of all events, dizziness, mild [1, 4]: 12.3% | % of all events, dizziness, moderate [1, 4]: 2.5% | % of all events, dizziness, severe [1, 4]: 0.5% | % of all events, gastrointestinal disorders [1, 4]: 44.8% | % of all events, gastrointestinal disorders (by severity table) [1, 4]: 44.8% | % of all events, nausea [1, 4]: 18.0% | % of all events, nausea, mild [1, 4]: 13.2% | % of all events, nausea, moderate [1, 4]: 3.6% | % of all events, nausea, severe [1, 4]: 1.2% | % of all events, nervous system disorders [1, 4]: 37.3% | % of all events, nervous system disorders (by severity table) [1, 4]: 37.3% | % of all events, pruritus [1, 4]: 17.8% | % of all events, pruritus, mild [1, 4]: 13.7% | % of all events, pruritus, moderate [1, 4]: 3.6% | % of all events, pruritus, severe [1, 4]: 0.5% | % of all events, skin and subcutaneous tissue disorders [1, 4]: 17.8% | % of all events, skin and subcutaneous tissue disorders (by severity table) [1, 4]: 17.8% | % of all events, somnolence [1, 4]: 22.0% | % of all events, somnolence, mild [1, 4]: 15.3% | % of all events, somnolence, moderate [1, 4]: 5.2% | % of all events, somnolence, severe [1, 4]: 1.5% | % of all events, vomiting [1, 4]: 4.2% | % of all events, vomiting, mild [1, 4]: 2.4% | % of all events, vomiting, moderate [1, 4]: 1.0% | % of all events, vomiting, severe [1, 4]: 0.8% | % of patients reporting constipation [1, 5]: 59.2% | % of patients reporting constipation, maximum severity mild [1, 5]: 26.7% | % of patients reporting constipation, maximum severity moderate [1, 5]: 20.9% | % of patients reporting constipation, maximum severity severe [1, 5]: 11.7% | % of patients reporting dizziness [1, 5]: 51.9% | % of patients reporting dizziness, maximum severity mild [1, 5]: 29.6% | % of patients reporting dizziness, maximum severity moderate [1, 5]: 16.0% | % of patients reporting dizziness, maximum severity severe [1, 5]: 6.3% | % of patients reporting gastrointestinal disorders [1, 5]: 77.7% | % of patients reporting gastrointestinal disorders (by maximum severity table) [1, 5]: 77.7% | % of patients reporting nausea [1, 5]: 58.3% | % of patients reporting nausea, maximum severity moderate [1, 5]: 22.3% | % of patients reporting nausea, maximum severity severe [1, 5]: 11.7% | % of patients reporting nervous system disorders [1, 5]: 79.1% | % of patients reporting nervous system disorders (by maximum severity table) [1, 5]: 79.1% | % of patients reporting pruritus, maximum severity mild [1, 5]: 28.6% | % of patients reporting pruritus, maximum severity moderate [1, 5]: 25.2% | % of patients reporting pruritus, maximum severity severe [1, 5]: 6.3% | % of patients reporting somnolence [1, 5]: 68.0% | % of patients reporting somnolence, maximum severity mild [1, 5]: 23.3% | % of patients reporting somnolence, maximum severity moderate [1, 5]: 29.1% | % of patients reporting somnolence, maximum severity severe [1, 5]: 15.5% | % of patients reporting vomiting, maximum severity mild [1, 5]: 9.7% | % of patients reporting vomiting, maximum severity moderate [1, 5]: 7.8% | % of patients reporting vomiting, maximum severity severe [1, 5]: 6.8% | Number of patients reporting constipation [1, 5]: 122 | Number of patients reporting constipation, maximum severity mild [1, 5]: 55 | Number of patients reporting constipation, maximum severity moderate [1, 5]: 43 | Number of patients reporting constipation, maximum severity severe [1, 5]: 24 | Number of patients reporting dizziness [1, 5]: 107 | Number of patients reporting dizziness, maximum severity mild [1, 5]: 61 | Number of patients reporting dizziness, maximum severity moderate [1, 5]: 33 | Number of patients reporting dizziness, maximum severity severe [1, 5]: 13 | Number of patients reporting gastrointestinal disorders [1, 5]: 160 | Number of patients reporting gastrointestinal disorders (by maximum severity table) [1, 5]: 160 | Number of patients reporting nausea [1, 5]: 120 | Number of patients reporting nausea, maximum severity mild [1, 5]: 50 | Number of patients reporting nausea, maximum severity moderate [1, 5]: 46 | Number of patients reporting nausea, maximum severity severe [1, 5]: 24 | Number of patients reporting nervous system disorders [1, 5]: 163 | Number of patients reporting nervous system disorders (by maximum severity table) [1, 5]: 163 | Number of patients reporting pruritus [1, 5]: 124 | Number of patients reporting pruritus, maximum severity mild [1, 5]: 59 | Number of patients reporting pruritus, maximum severity moderate [1, 5]: 52 | Number of patients reporting pruritus, maximum severity severe [1, 5]: 13 | Number of patients reporting skin and subcutaneous tissue disorders [1, 5]: 124 | Number of patients reporting skin and subcutaneous tissue disorders (by maximum severity table) [1, 5]: 124 | Number of patients reporting somnolence [1, 5]: 140 | Number of patients reporting somnolence, maximum severity mild [1, 5]: 48 | Number of patients reporting somnolence, maximum severity moderate [1, 5]: 60 | Number of patients reporting somnolence, maximum severity severe [1, 5]: 32 | Number of patients reporting vomiting [1, 5]: 50 | Number of patients reporting vomiting, maximum severity mild [1, 5]: 20 | Number of patients reporting vomiting, maximum severity moderate [1, 5]: 16 | Number of patients reporting vomiting, maximum severity severe [1, 5]: 14 | Mean plasma concentration versus dose level over the course of the study ([2]; FIGS. 1 and 2): increased linearly with increasing dose levels | Plasma concentration of oxycodone (ng/mL) versus dose of oxycodone (mg/day): slope of linear equation ([2]; average of patient-specific regressions, slope p<0.001, t-test): 0.4223 | Plasma concentration of oxycodone versus dose of oxycodone (mg/day): intercept of linear equation ([2]; average of patient-specific within-patient least squares regressions, all active treatments): 2.28 ng/mL
